Active and inactive are the calls of the source.
Tests used:
Cytochrome P450 2C19 = Cytochrome P450 2C19 (Homo sapiens, UniProt P33261); assay: Cytochrome panel assay with activity outcomes. Panel member name: p450-cyp2c19 Compounds with AC50 equal or less than 10 uM are considered active; type: functional; conditions: read-out: AC50
Cytochrome P450 2D6 = Cytochrome P450 2D6 (Homo sapiens, UniProt P10635);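 note: CYP2D6 member of a cytochrome P450 panel assay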
Cytochrome P450 3A4 = Cytochrome P450 3A4 (Homo sapiens, UniProt P08684);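 note: CYP3A4 tested as one member of a cytochrome P450 panel screen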
[1] = cytotoxicity toward NIH3T3 fibroblasts, dose response, counter-screen, cell-based, ATP luminescence, mouse fibroblasts (AID 2010); type: functional;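 note: cells exposed to compound for about 90 hours before reading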
[2] = inhibitors of intracellular T. cruzi replication, confirmation, NIH3T3 host cells, beta-gal luminescence (AID 2044); type: functional, cell-based;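 note: intracellular parasites grown in NIH/3T3 mouse fibroblasts as host cells; luminescent beta-galactosidase reporter signal from transgenic T. cruzi replicating inside host cells; inhibitors lower the luminescence signal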
[3] = tested on: Streptococcus sp. 'group A'; assay: growth inhibition of control SK(-) GAS strain, dose response, counter-screen for streptokinase expression inhibitor project, luminescence, kanamycin, BacTiterGlo, confirmation (AID 1900); type: functional, organism-based
Streptokinase A = target: T1, Streptokinase A (Streptococcus pyogenes serotype M1, UniProt P10520); assay: S. pyogenes streptokinase expression inhibitors, potency, dose response, plasminogen activation absorbance, OD405 (AID 1914); type: functional, Streptococcus pyogenes M1 GAS;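 note: secreted streptokinase activity via plasminogen activation per viability signal from cell pellet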
T1 sequence (P10520 whole entry): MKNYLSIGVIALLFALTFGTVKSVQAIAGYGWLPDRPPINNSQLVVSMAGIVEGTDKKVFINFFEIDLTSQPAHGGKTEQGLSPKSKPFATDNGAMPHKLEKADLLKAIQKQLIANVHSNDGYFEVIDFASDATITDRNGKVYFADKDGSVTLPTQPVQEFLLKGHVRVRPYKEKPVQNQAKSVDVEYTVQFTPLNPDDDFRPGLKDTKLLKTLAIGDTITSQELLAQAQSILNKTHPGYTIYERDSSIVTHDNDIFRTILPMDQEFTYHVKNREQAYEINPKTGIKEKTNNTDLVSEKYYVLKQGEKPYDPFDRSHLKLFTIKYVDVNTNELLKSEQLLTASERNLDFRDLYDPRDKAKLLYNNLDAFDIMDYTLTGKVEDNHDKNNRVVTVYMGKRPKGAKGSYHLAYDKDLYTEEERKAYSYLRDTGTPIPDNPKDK

Streptococcus = assay: Group A Streptococcus viability loss, dose response, counter-screen for streptokinase expression inhibitor project, luminescence, BacTiterGlo (AID 1915); type: functional, organism-based;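 note: potency for reduction of bacterial viability or growth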
[4] = HEp-2 cell cytotoxicity, dose response, cytotoxicity control for RSV inhibitor project, HTS (AID 2410); type: functional; conditions: human respiratory syncytial virus

Chain of Cytochrome P450 2C19 (P33261 whole entry): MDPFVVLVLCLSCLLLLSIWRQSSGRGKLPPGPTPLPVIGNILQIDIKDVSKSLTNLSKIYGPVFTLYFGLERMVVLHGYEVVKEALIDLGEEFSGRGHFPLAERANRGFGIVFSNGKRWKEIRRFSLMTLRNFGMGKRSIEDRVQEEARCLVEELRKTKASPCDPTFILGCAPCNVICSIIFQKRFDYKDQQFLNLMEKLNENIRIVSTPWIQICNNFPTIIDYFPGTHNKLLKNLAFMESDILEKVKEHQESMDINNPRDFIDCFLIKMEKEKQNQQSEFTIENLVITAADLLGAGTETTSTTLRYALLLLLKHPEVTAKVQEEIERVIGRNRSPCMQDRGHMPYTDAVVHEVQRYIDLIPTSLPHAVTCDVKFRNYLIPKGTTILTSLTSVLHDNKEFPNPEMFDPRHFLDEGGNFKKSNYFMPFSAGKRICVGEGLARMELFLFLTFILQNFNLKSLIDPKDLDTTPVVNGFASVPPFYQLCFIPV
Chain of Cytochrome P450 3A4 (P08684 whole entry): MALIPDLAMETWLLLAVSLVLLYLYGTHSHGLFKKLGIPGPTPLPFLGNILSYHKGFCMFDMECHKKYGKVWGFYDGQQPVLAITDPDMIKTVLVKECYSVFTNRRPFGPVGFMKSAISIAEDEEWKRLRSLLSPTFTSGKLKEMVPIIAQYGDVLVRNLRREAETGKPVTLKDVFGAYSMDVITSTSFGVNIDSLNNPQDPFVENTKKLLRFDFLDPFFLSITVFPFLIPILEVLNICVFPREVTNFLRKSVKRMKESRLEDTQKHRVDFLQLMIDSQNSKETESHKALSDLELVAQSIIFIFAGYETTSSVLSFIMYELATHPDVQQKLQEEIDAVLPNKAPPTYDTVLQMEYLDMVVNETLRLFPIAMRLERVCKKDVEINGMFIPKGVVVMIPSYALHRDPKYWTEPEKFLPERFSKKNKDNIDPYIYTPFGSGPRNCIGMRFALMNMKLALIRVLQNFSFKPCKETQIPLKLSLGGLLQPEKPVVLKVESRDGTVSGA
Chain of Cytochrome P450 2D6 (P10635 whole entry): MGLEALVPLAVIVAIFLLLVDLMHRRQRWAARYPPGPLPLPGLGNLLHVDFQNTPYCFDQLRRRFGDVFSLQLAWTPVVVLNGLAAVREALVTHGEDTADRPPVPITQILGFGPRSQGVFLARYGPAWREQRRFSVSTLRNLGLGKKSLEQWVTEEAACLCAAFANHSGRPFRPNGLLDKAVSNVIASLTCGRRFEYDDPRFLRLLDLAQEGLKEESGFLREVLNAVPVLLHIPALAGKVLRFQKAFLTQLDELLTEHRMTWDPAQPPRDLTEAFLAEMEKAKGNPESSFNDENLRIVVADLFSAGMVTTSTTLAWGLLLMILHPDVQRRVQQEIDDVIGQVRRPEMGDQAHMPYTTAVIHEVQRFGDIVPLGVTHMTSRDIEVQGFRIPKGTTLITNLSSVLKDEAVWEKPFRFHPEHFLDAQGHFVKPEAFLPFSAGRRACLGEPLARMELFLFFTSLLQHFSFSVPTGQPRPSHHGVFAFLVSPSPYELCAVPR

Compound: COc1ccc(C2N=C(N)N=C(N)N2c2ccccc2OC)cc1OC (centres undefined)
- AC50 (Cytochrome P450 2C19): 39.8 µM (inconclusive)

Compound: CC[C@]1(c2cccc(O)c2)CCCCN(C)C1
- AC50 (Cytochrome P450 2D6): 10 µM (inconclusive)

Compound: COc1ccc(CNc2cc(-c3ccccc3Cl)ncn2)c(OC)c1
- AC50 (Cytochrome P450 2D6): 39.8 µM (inconclusive)

Compound: CN(C)c1ccc(/C=N\NC(=O)c2cnc3ccccc3c2)cc1
- AC50 (Cytochrome P450 3A4): 3.98 µM (inconclusive)

Compound: Cc1nn(Cc2c(F)c(F)c(F)c(F)c2F)c(C)c1NC(=O)c1ccc(COc2ccc(Cl)cc2Cl)o1
- EC50 [1]: > 60 µM (not active)
- EC50 [2]: 1.11 µM (active)

Compound: O=c1cnc2cnc(N3CCNCC3)nc2n1Cc1cccs1
- AC50 (Cytochrome P450 3A4): 15.8 µM (inconclusive)
- AC50 (Cytochrome P450 2D6): 20 µM (inconclusive)

Compound: CC(CC(=O)Nc1nc2ccccc2[nH]1)c1ccccc1 (centres undefined)
- EC50 [3]: > 150 µM (not active)
- EC50 (Streptokinase A): > 150 µM (not active)
- EC50 (Streptococcus): > 150 µM (not active)

Compound: Cc1ccccc1S(=O)(=O)c1c(C)cc(-c2ccccc2)nc1O
- AC50 (Cytochrome P450 3A4): 28.2 µM (inconclusive)

Compound: CN(C)Cc1ccccc1-c1nccc(Nc2ccc(F)cc2)n1
- AC50 (Cytochrome P450 3A4): 15.8 µM (inconclusive)

Compound: CCSc1nnc(NC(=O)c2nc(-c3ccccc3)n(-c3ccccc3)n2)s1
- EC50 [3]: 7.28 µM (active)
- EC50 (Streptokinase A): 20.2 µM (active)
- EC50 (Streptococcus): 16.5 µM (active)

Compound: c1ccc2sc(SCSc3nc4ccccc4s3)nc2c1
- AC50 (Cytochrome P450 2D6): 2.51 µM (inconclusive)
- EC50 [3]: > 150 µM (not active)
- CC50 [4]: 29.5 µM (active)
- EC50 (Streptokinase A): > 150 µM (not active)
- EC50 (Streptococcus): > 150 µM (not active)

Compound: CCC(=O)N(CCC(Cc1ccccc1)c1ccc2c(c1)OCO2)Cc1ccccc1F (centres undefined)
- EC50 [3]: 12.2 µM (active)
- EC50 (Streptokinase A): 10.7 µM (active)
- EC50 (Streptococcus): 40.3 µM (active)

Compound: Brc1ccc(-c2noc(CCc3ccccc3)n2)cc1
- CC50 [4]: 47.7 µM (active)

Compound: COc1ccc(/C=C2\SC(=O)N(CCNC(=O)C3CC(=O)N(c4ccccc4)C3)C2=O)cc1 (centres undefined)
- AC50 (Cytochrome P450 2D6): 20 µM (inconclusive)

Compound: CCCN1CCN(CCCNC(=O)Cn2nc(-c3ccc(C)cc3)ccc2=O)CC1
- AC50 (Cytochrome P450 2D6): 20 µM (inconclusive)

Compound: O=C(COc1cccnc1[N+](=O)[O-])N1N=C(c2ccc(Cl)cc2)CC1c1ccco1 (centres undefined)
- EC50 [1]: > 60 µM (not active)
- EC50 [2]: 2.8 µM (active)

Compound: CC(C)=CCC/C(C)=C/CO/N=C1/C[C@@H](O)[C@@H](O)[C@@H]2[C@H]3C(=O)N(c4ccc(F)cc4F)C(=O)[C@@H]3CC[C@H]12
- AC50 (Cytochrome P450 3A4): 3.98 µM (inconclusive)

Compound: Cc1ccc(Sc2cc(C(=O)NCCCN(C)C)c3ccccc3n2)cc1
- EC50 [1]: 14.6 µM (active)
- EC50 [2]: 0.133 µM (active)

Compound: N#C/C(=C\c1ccc(OCC(N)=O)cc1)c1ccccc1
- CC50 [4]: 36.8 µM (active)

Compound: COc1ccc(N2CCN(CC(=O)Nc3nc4c(s3)CC(C)CC4)CC2)cc1 (centres undefined)
- EC50 [3]: 23.8 µM (active)
- EC50 (Streptokinase A): > 150 µM (not active)
- EC50 (Streptococcus): > 150 µM (not active)

Compound: O=C(COn1nnc2ccc(C(F)(F)F)cc21)Nc1nnc(-c2ccccc2)o1
- EC50 [3]: 2.77 µM (active)
- EC50 (Streptococcus): 3.65 µM (active)

Compound: Cc1cccc(-n2nc([N+](=O)[O-])c(NCc3cccnc3)[n+]2[O-])c1
- AC50 (Cytochrome P450 2D6): 12.6 µM (inconclusive)
- EC50 [1]: > 60 µM (not active)
- EC50 [2]: 0.582 µM (active)

Compound: O=c1c(-c2ccc(F)cc2)nc2cncnc2n1-c1ccccc1
- AC50 (Cytochrome P450 3A4): 12.6 µM (inconclusive)
- AC50 (Cytochrome P450 2D6): 20 µM (inconclusive)

Compound: CC1Cc2cc(S(=O)(=O)N3CCCCC3C)ccc2N1C(=O)C1CCC1 (centres undefined)
- CC50 [4]: 20.8 µM (active)

Compound: CCCNC(=O)OC[C@@H]1O[C@H](c2ccccc2)C=C[C@@H]1Oc1ccc(OC)cc1
- AC50 (Cytochrome P450 2D6): 3.16 µM (inconclusive)

Compound: S=C(Nc1ccccc1)Nc1ccccc1C#Cc1ccccc1
- AC50 (Cytochrome P450 3A4): 7.94 µM (inconclusive)
- AC50 (Cytochrome P450 2D6): 15.8 µM (inconclusive)

Compound: O=c1c(CCc2ccccc2)nc2cnc(N3CCNCC3)nc2n1C1CC1
- AC50 (Cytochrome P450 3A4): 12.6 µM (inconclusive)
- AC50 (Cytochrome P450 2D6): 39.8 µM (inconclusive)

Compound: COc1cccc(-c2nccc(NCc3cccnc3)n2)c1
- AC50 (Cytochrome P450 2D6): 25.1 µM (inconclusive)

Compound: COC(=O)[C@@]1(Cc2ccc(OC)cc2)[C@H]2c3cc(C(=O)N4CCCC4)n(CCc4ccc(O)c(O)c4)c3C[C@H]2CN1C(=O)c1ccccc1
- AC50 (Cytochrome P450 2D6): 39.8 µM (inconclusive)

Compound: Oc1ccc(C[C@H]2CN=C(S)N2CCc2cc(C(F)(F)F)cc(C(F)(F)F)c2)cc1
- CC50 [4]: 28.9 µM (active)

Compound: O=C(Nc1ccccc1)N1CCCC2(CCN(C(=O)c3cccc(F)c3)CC2)C1
- AC50 (Cytochrome P450 2C19): 10 µM (inconclusive)

Compound: COc1ccc(N2CC(C(=O)Nc3nnc(SCc4cccnc4)s3)CC2=O)cc1 (centres undefined)
- EC50 [3]: > 150 µM (not active)
- EC50 (Streptokinase A): > 150 µM (not active)
- EC50 (Streptococcus): > 150 µM (not active)

Compound: COc1ccccc1N1CCN(C/C=C/c2ccc(N(C)C)cc2)CC1
- EC50 [1]: > 60 µM (not active)
- EC50 [2]: 1.46 µM (active)

Compound: Cc1ccc(C(c2nnnn2C2CCCC2)N2CCN3CCCC3C2)cc1 (centres undefined)
- AC50 (Cytochrome P450 2C19): 31.6 µM (inconclusive)

Compound: Cc1c(-c2cccc(Cl)c2)nc2ccccc2c1C(=O)OCC(=O)Nc1ccc2c(c1)OCO2
- CC50 [4]: 16.3 µM (active)
- EC50 [1]: > 60 µM (not active)
- EC50 [2]: 2.22 µM (active)

Compound: Cn1nc(C(=O)NC2CCCCC2)c2ccccc2c1=O
- AC50 (Cytochrome P450 3A4): 5.01 µM (inconclusive)
- AC50 (Cytochrome P450 2D6): 10 µM (inconclusive)

Compound: Cc1c(Cc2ccccc2)c(=O)oc2cc(OCc3ccc(C(=O)O)cc3)ccc12
- EC50 [3]: 7.39 µM (active)
- EC50 (Streptokinase A): > 150 µM (not active)
- EC50 (Streptococcus): > 50 µM (not active)

Compound: COc1cccc(CC2(CO)CCCN(C/C=C/c3ccccc3OC)C2)c1 (centres undefined)
- EC50 [1]: > 60 µM (inconclusive)
- EC50 [2]: 0.209 µM (active)

Compound: CCCCCC(=O)Nc1cccc(C2=NOC3(C2)C[C@@H](C(N)=O)N(C(=O)c2ccc(Cl)cc2)C3)c1 (some centres undefined)
- EC50 [1]: > 30 µM (not active)
- EC50 [2]: 0.374 µM (active)

Compound: Cc1cc(Br)ccc1NC(=O)CN1C(=O)C2C3CC(c4ccccc4)C(C3)C2C1=O (centres undefined)
- EC50 [1]: > 60 µM (not active)
- EC50 [2]: 2.6 µM (active)

Compound: Cc1ccc(S(=O)(=O)Nc2ccc(Cl)cc2)cc1NC(=O)c1cc2c(s1)CCCC2
- EC50 [3]: 4.39 µM (active)
- EC50 (Streptokinase A): > 150 µM (not active)
- EC50 [1]: 25.8 µM (active)
- EC50 [2]: 1.18 µM (active)
- EC50 (Streptococcus): 14.9 µM (active)

Compound: COc1ccccc1-c1cc(-c2ccccc2)nc(SCC(=O)O)c1C#N
- EC50 [3]: 3.36 µM (active)
- EC50 (Streptokinase A): 1.72 µM (active)
- EC50 (Streptococcus): 13.4 µM (active)

Compound: C/C(CCN1CCCc2nc(C)c(C)cc21)=N\OC[C@@H](O)COCc1ccco1
- AC50 (Cytochrome P450 2D6): 3.16 µM (inconclusive)

Compound: COc1ccc2sc(N(CCCN(C)C)C(=O)c3ccc(S(=O)(=O)N4CCCc5ccccc54)cc3)nc2c1
- EC50 [1]: 5.35 µM (active)
- EC50 [2]: 0.139 µM (active)

Compound: CCc1ncc(CO)n1Cc1cccc2ccccc12
- AC50 (Cytochrome P450 2C19): 0.398 µM (inconclusive)

Compound: CNc1ccnc(-c2ccccc2C(F)(F)F)n1
- AC50 (Cytochrome P450 3A4): 25.1 µM (inconclusive)
- AC50 (Cytochrome P450 2C19): 25.1 µM (inconclusive)

Compound: COc1ccc(OC)c(-c2cc(C(=O)Nc3cccc(Cl)c3)no2)c1
- EC50 [1]: > 30 µM (not active)
- EC50 [2]: 2.43 µM (active)

Compound: CCCS(=O)(=O)N1CCCC(C(=O)NCCN(C)Cc2ccccc2)C1 (centres undefined)
- AC50 (Cytochrome P450 2D6): 5.01 µM (inconclusive)

Compound: N#Cc1cccc(NC(=O)N2CC[C@@]3(CCCNC3)C2)c1
- AC50 (Cytochrome P450 3A4): 25.1 µM (inconclusive)

Compound: Cn1c(S)nnc1-c1cc(Br)ccc1O
- EC50 [3]: 11 µM (active)
- EC50 (Streptococcus): > 150 µM (not active)

Compound: Nc1ncnc(Nc2cccc(Cl)c2Cl)n1
- CC50 [4]: 26.1 µM (active)

Compound: COc1ccc(C2C(=O)N(CCc3ccccc3)CC(=O)N2C2CCCC2)cc1 (centres undefined)
- AC50 (Cytochrome P450 2D6): 14.1 µM (inconclusive)

Compound: CN(C)c1ncc2nc(-c3cccs3)c(=O)n(Cc3cccs3)c2n1
- AC50 (Cytochrome P450 3A4): 3.16 µM (inconclusive)

Compound: CCOC(=O)c1c(-c2cccs2)csc1NC(=O)C(C)(C)C
- CC50 [4]: 49.8 µM (active)

Compound: COCCNc1nc(-c2ccc(N(C)C)cc2)nc2ccccc12
- AC50 (Cytochrome P450 2D6): 39.8 µM (inconclusive)

Compound: CC(C)(C)c1ccc(O)c(/N=C/c2c(O)ccc3ccccc23)c1
- EC50 [3]: 5.5 µM (active)
- EC50 (Streptokinase A): > 150 µM (not active)
- EC50 (Streptococcus): > 150 µM (not active)

Compound: Cc1ccc(C)c(/C=N/NC(=S)NCCc2ccccc2)c1
- EC50 [3]: 32.3 µM (active)
- EC50 (Streptokinase A): > 150 µM (not active)
- EC50 (Streptococcus): > 150 µM (not active)

Compound: COc1ccccc1N(CC(=O)N/N=C/c1ccc(OCC(=O)NCc2ccco2)cc1)S(=O)(=O)c1ccc(C)cc1
- CC50 [4]: 42.5 µM (active)

Compound: Nc1cc(Cl)nc(N/N=C/c2ccccc2[N+](=O)[O-])n1
- AC50 (Cytochrome P450 2C19): 8.91 µM (inconclusive)

Compound: C/C(=N\NC(N)=O)c1ccccc1Cl
- CC50 [4]: 19.4 µM (active)

Compound: Cc1c(-c2ccc(O)cc2)nn(-c2ccc(O)cc2)c1-c1ccc(OCCN2CCCCC2)cc1
- AC50 (Cytochrome P450 3A4): 3.16 µM (inconclusive)

Compound: CCc1ccc(C2=Nn3c(nnc3-c3cccs3)SC2)cc1
- AC50 (Cytochrome P450 2C19): 5.62 µM (inconclusive)
